Results on ten molecules are retold here after US10316035B2, “Triazolopyridine inhibitors of myeloperoxidase” (BRISTOL-MYERS SQUIBB COMPANY, priority 2015, dated 2019).

Common to all, as to type: biochemical
In test [1] the target is T1, myeloperoxidase (MPO) (Homo sapiens, UniProt P05164).
T1 sequence (P05164 49-745): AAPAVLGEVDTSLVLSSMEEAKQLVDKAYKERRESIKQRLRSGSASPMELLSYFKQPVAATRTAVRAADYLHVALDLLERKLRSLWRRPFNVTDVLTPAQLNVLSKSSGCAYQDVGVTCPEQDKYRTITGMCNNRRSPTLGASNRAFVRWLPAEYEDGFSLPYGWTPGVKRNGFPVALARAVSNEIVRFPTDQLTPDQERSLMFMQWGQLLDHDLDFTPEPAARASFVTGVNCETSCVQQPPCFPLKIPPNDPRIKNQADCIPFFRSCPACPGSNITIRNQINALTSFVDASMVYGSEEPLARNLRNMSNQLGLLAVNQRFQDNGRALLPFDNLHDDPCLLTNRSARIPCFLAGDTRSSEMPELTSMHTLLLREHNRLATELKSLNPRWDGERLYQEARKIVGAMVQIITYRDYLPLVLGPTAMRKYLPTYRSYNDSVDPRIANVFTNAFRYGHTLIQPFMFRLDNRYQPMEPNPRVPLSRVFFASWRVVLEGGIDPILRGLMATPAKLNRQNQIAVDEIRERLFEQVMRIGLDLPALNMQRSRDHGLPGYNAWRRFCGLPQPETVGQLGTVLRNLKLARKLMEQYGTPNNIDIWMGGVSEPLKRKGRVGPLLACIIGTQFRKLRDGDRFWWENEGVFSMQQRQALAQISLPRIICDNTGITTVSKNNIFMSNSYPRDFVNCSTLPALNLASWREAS
The test is described as follows: MPO peroxidation assay (Amplex Red assay). The following applies: MPO peroxidation, potency range class; read-out: Amplex Red IC50. Put shortly:
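MPO (200 pM) with 40 nM H2O2 was preincubated 10 min at room temperature with inhibitor in 100 mM KPi pH 7.4. A mix of Amplex Red (200 μM) and H2O2 (10 mM) was then added and resorufin fluorescence read kinetically for 15 min. Slopes over 180–540 s gave % inhibition and IC50 via a four-parameter Hill fit.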

In test [2] the target is T2, EPX (eosinophil peroxidase) (Homo sapiens, UniProt P11678).
T2 construct: purchased Lee Biosolutions 342-60
T2 sequence (P11678 140-715): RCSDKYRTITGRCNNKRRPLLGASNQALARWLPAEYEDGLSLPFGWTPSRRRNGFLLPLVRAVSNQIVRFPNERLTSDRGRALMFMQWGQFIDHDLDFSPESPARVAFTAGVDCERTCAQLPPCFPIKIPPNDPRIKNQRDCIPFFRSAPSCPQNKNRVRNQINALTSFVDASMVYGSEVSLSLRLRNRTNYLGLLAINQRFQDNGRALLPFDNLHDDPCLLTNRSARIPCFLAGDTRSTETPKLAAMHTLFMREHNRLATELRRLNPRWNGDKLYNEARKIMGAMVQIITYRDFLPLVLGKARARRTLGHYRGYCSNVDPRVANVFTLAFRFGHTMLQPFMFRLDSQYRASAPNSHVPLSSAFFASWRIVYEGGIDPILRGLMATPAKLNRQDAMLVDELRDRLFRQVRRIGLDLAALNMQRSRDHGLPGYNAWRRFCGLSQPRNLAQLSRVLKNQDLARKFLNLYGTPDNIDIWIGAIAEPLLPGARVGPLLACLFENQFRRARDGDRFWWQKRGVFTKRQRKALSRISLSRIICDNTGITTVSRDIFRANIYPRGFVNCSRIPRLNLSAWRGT
The experiment in a line: EPX bromination assay. As to the method: (§1) [formula] where A=minimal Y value (activity level of inhibited sample), B=maximal Y value (activity level of uninhibited sample), C=Log IC50, D=Hill Slope, x=concentration of inhibitor. EPX Bromination Assay
EPX bromination activity was measured in 100 mM KPi (pH 7.4) by monitoring the H2O2 catalyzed formation of 3-bromo tyrosine from tyrosine and potassium bromide. A 50 μl mixture of 0.6 μM EPX (Lee Biosolutions Cat#342-60) was added to 100 nL inhibitor in 100% DMSO in a 384 well REMP plate. Enzyme and compound were preincubated for ten minutes at room temperature.
After the ten minute preincubation of enzyme and inhibitor, 25 μL of a mixture containing 400 μM tyrosine and 1200 μM potassium bromide was added to the plate containing enzyme and inhibitor, followed by the addition of 25 μl of 20 μM H2O2. The reaction was allowed to proceed for 15 minutes, at which time it was quenched with 10 μL of 20% TCA. The final concentrations of all components were 0.3 μM EPX, 100 μM tyrosine, […], 5 μM H2O2, 0.1% DMSO, 2.0% TCA.
IC50 values were determined by determining the peak areas of 3-bromotyrosine present at the end of the 15 minute reaction and fitting the data to:
[formula] where A=minimal Y value (activity level of inhibited sample), B=maximal Y value (activity level of uninhibited sample), C=Log IC50, D=Hill Slope, x=concentration of inhibitor.
Reversed-phase analysis was performed on a Waters Acquity Ultra Performance LC system using an Acquity UPLC BEH C18 […], 2.1×50 mm analytical column. The column was maintained at 60° C. Samples were eluted using a gradient of 0%-100% B over 2.5 minutes, followed by equilibration with 100% A for 1 minute where A consisted of 0.1% TFA and B consisted of 90% MeOH/0.1% TFA at a flow rate of 0.6 mL/min. The retention time of 3-bromo tyrosine was 1.22 min.

For test [3], the target named is T1, myeloperoxidase (MPO). The test is described as follows: MPO chlorination assay (APF assay). The conditions noted are these: MPO chlorination, potency range class; read-out: APF IC50. As to the method:
[formula] where A=minimal Y value (activity level of inhibited sample), B=maximal Y value (activity level of uninhibited sample), C=Log IC50, D=Hill Slope, x=concentration of inhibitor. MPO Chlorination Assay (APF Assay)
MPO chlorination activity was measured in 100 mM KPi (pH 7.4) by utilizing the non-fluorescent reagent Aminophenyl fluorescein (APF, Invitrogen catalog #A36003). APF is cleaved by (—OCl) to yield the fluorescent compound fluorescein. Reactions were carried out in 50 μL total volume by adding a 25 μL mixture of 200 pM myeloperoxidase and 120 mM NaCl to 100 nL inhibitor in 100% DMSO in a 384 well, non-binding surface clear bottom plate (CORNING® #3655). Enzyme, inhibitor, and chloride were preincubated for ten minutes at room temperature.
After the ten minute preincubation, 25 μL of an APF mixture containing […], 120 mM NaCl and 10 μM H2O2 was added to the plate using the internal dispensing system of a Hammatsu FDSS 6000. Kinetic determinations were carried out immediately on the FDSS 6000 (3 minute kinetic read, 1 read every second, ex: 485 nm, em: 535 nm). IC50 values for inhibitors were calculated by taking the slope of the linear portion of the kinetic measurement (20 seconds to ˜80-120 secs).
IC50 values were calculated by determining the slope of the linear portion of the kinetic trace ([…]), and using that calculated slope to determine % inhibition occurring at each concentration of inhibitor using the following equation:
as §1

Broadly, the IC50 is the concentration needed to halve the response being measured. Take `Nc1cc(OCc2cccc(OCc3ccccc3)c2)c2nn[nH]c2n1` [Example 2, 7-(3-(Benzyloxy)benzyloxy)-3H-[1,2,3]triazolo[4,5-b]pyridin-5-amine]: the IC50 was 1 to 100 nM in test [1] and 80 nM in test [2].
Consider `Nc1cc(OCc2cccc(OC3CC3)c2)c2nn[nH]c2n1` [Example 6, 7-(3-Cyclopropoxybenzyloxy)-3H-[1,2,3]triazolo[4,5-b]pyridin-5-amine], for which the 50% inhibitory concentration (IC50) in test [1] is 1 to 100 nM; in test [2] it was 10 nM.
For `Nc1cc(OCc2cccc(-c3ncccn3)c2)c2nn[nH]c2n1` [Example 8, 7-(3-(Pyrimidin-2-yl)benzyloxy)-3H-[1,2,3]triazolo[4,5-b]pyridin-5-amine], in that order: 1 to 100 nM and 40 nM.
`Nc1cc(OCc2c(F)cccc2F)c2nn[nH]c2n1` [Example 54, 7-(2,6-Difluorobenzyloxy)-3H-[1,2,3]triazolo[4,5-b]pyridin-5-amine]: the figures for the IC50 in test [1] and in test [2] were 1 to 100 nM and 10 nM, respectively.
For `Nc1cc(OCc2ccc(-n3cc(C(F)(F)F)cn3)cc2OC(F)(F)F)c2nn[nH]c2n1` [Example 271, 7-((2-(trifluoromethoxy)-4-(4-(trifluoromethyl)-1H-pyrazol-1-yl)benzyl)oxy)-3H-[1,2,3]triazolo[4,5-b]pyridin-5-amine], the IC50 lay within 1000 to 10000 nM in test [3] and 1 to 100 nM in test [1].
For `Cc1nccn1-c1ccc(COc2cc(N)nc3[nH]nnc23)c(C#N)c1` [Example 277, 2-(((5-amino-3H-[1,2,3]triazolo[4,5-b]pyridin-7-yl)oxy)methyl)-5-(2-methyl-1H-imidazol-1-yl)benzonitrile], in that order: 1000 to 10000 nM and 101 to 999 nM.
On to `CC(C)n1cc(-c2ccc(COc3cc(N)nc4[nH]nnc34)c(OC(F)(F)F)c2)cn1` [Example 305, 7-((4-(1-isopropyl-1H-pyrazol-4-yl)-2-(trifluoromethoxy)benzyl)oxy)-3H-[1,2,3] triazolo[4,5-b]pyridin-5-amine], for which the results for the IC50 in test [3] and in test [1] were 101 to 999 nM and 1 to 100 nM, respectively.
The corresponding values for `COc1ncc(-c2cc(F)c(COc3cc(N)nc4[nH]nnc34)c(F)c2)cn1` [Example 334, 7-((2,6-difluoro-4-(2-methoxypyrimidin-5-yl)benzyl)oxy)-3H-[1,2,3]triazolo[4,5-b] pyridin-5-amine] are 101 to 999 nM and 1 to 100 nM.
In the case of `Nc1cc(OCc2c(F)cc(-c3ccc(N4CCNCC4)nc3)cc2F)c2nn[nH]c2n1` [Example 336, 7-((2,6-difluoro-4-(6-(piperazin-1-yl)pyridin-3-yl)benzyl)oxy)-3H-[1,2,3]triazolo[4,5-b] pyridin-5-amine], the IC50 in test [3] and in test [1] was 1 to 100 nM each time.
On to `Nc1cc(OCc2c(F)ccc(-c3cncc(C(=O)N4CCOCC4)c3)c2Cl)c2nn[nH]c2n1` [Example 345, (5-(3-(((5-amino-3H-[1,2,3]triazolo[4,5-b]pyridin-7-yl)oxy)methyl)-2-chloro-4-fluorophenyl)pyridin-3-yl)(morpholine) methanone], for which the IC50 fell in the range of 1000 to 10000 nM in test [3] and 101 to 999 nM in test [1].
